# Assays:
# [1] = biological target: T1, recombinant thioredoxin reductase 1 (TrxR1) (Homo sapiens, UniProt Q16881); assay: Inhibition of recombinant TrxR1 (DTNB assay); assay type: biochemical; settings: 15 nM TrxR1, 250 μM NADPH, 15 minutes incubation, 2.5 mM DTNB, O.D. at 412 nm; read-out: TrxR inhibition
# T1 sequence (Q16881 151-649 limits assumed): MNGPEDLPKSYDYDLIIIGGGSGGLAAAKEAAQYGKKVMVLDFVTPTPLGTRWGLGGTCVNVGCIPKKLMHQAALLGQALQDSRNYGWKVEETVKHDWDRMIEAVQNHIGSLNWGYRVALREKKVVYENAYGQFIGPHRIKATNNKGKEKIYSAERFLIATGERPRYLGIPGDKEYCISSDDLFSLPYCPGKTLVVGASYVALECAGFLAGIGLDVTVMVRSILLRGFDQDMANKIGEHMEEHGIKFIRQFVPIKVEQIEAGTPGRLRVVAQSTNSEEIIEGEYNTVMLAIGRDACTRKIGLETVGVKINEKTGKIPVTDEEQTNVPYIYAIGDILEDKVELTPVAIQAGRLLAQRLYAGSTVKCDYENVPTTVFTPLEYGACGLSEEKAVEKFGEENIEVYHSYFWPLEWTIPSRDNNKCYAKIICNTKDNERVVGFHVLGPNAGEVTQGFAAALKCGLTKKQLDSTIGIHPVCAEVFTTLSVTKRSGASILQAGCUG
# Description: (§1) Small molecule inhibition of recombinant thioredoxin reductase 1 (TrxR1) and gluthathione reductase (GR) was examined in 96-well plate format. 15 nM TrxR1 was incubated in the presence of 250 μM NADPH, 0.1 mg/ml BSA, and various concentrations of the compound of Example 1 (1% DMSO final) in 50 mM Tris (pH 7.5) and 2 mM EDTA buffer for 15 minutes. Following the incubation period, 2.5 mM DTNB was added to each well and the change in O.D. at 412 nm was followed. Percent activity was determined using DMSO vehicle and no TrxR1 (blank) controls. 2 nM GR was incubated in the presence of 250 μM NADPH, 0.1 mg/ml BSA, and various concentrations of compounds (1% DMSO final) in 50 mM Tris (pH 7.5) and 2 mM EDTA buffer for 15 minutes. Following the incubation period, 1 mM GSSG was added to each well and the change in O.D. at 340 nm was followed. Percent activity was determined using DMSO vehicle and no GR (blank) controls.
# [2] = biological target: T2, gluthathione reductase (GR) (Homo sapiens, UniProt P00390); assay: Inhibition of recombinant GR (GSSG assay); assay type: biochemical; settings: 2 nM GR, 250 μM NADPH, 15 minutes incubation, 1 mM GSSG, O.D. at 340 nm
# T2 sequence (P00390 44-522): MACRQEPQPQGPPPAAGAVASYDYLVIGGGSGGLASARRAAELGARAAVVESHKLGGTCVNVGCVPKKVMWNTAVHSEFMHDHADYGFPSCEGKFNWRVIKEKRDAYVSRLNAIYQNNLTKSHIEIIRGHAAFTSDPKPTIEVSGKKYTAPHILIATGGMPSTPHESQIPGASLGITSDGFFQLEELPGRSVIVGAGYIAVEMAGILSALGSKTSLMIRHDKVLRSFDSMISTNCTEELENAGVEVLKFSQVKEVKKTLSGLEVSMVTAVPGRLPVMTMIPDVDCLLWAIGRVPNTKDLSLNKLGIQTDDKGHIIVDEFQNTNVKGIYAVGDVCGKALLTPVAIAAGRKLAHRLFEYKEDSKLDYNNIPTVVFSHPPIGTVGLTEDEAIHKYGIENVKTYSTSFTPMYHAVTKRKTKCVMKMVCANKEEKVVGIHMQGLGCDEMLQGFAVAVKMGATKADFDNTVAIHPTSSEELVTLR
# Description: as §1
compound,measurement,setting,value
"O=c1c(Cl)c(Cl)cnn1Cc1nnc(-c2ccc(Cl)cc2)o1 [Example 1, 4,5-dichloro-2-((5-(4-chlorophenyl)-1,3,4-oxadiazol-2-yl)methyl)pyridazin-3-one]",IC50,[1],1.85 µM
same,IC50,[2],> 100 µM
